# Assay results from PubChem BioAssay (NCI).
#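 Test compounds were applied to cells in 96-well plates for 48 hours at 5 doses. GI50 marks 50% less growth. Definition used: TGI = concentration required for complete inhibition of growth.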
# How the values were obtained:
# Assay in all cases: NCI tumour cell line growth inhibition, 48 h
# [1] = tested on: 786-0 renal
# [2] = tested on: A498 renal
# [3] = tested on: A549 NSCLC
# [4] = tested on: ACHN renal
# [5] = tested on: BT-549 breast
# [6] = tested on: CAKI-1 renal
# [7] = tested on: CCRF-CEM leukemia
# [8] = tested on: COLO 205 colon
# [9] = tested on: DU-145 prostate
# [10] = tested on: EKVX NSCLC
# [11] = tested on: HCC-2998 colon
# [12] = tested on: HCT-116 colon
# [13] = tested on: HCT-15 colon
# [14] = tested on: HL-60(TB) leukemia
# [15] = tested on: HOP-62 NSCLC
# [16] = tested on: HOP-92 NSCLC
# [17] = tested on: HS 578T breast
# [18] = tested on: HT29 colon
# [19] = tested on: IGROV1 ovarian
# [20] = tested on: K-562 leukemia
# [21] = tested on: KM12 colon
# [22] = tested on: LOX IMVI melanoma
# [23] = tested on: M14 melanoma
# [24] = tested on: MALME-3M melanoma
# [25] = tested on: MCF7 breast
# [26] = tested on: MDA-MB-231 breast
# [27] = tested on: MOLT-4 leukemia
# [28] = tested on: NCI-H226 lung
# [29] = tested on: NCI-H23 lung
# [30] = tested on: NCI-H460 lung
# [31] = tested on: NCI-H522 lung
# [32] = tested on: NCI/ADR-RES ovarian
# [33] = tested on: OVCAR-3 ovarian
# [34] = tested on: OVCAR-4 ovarian
# [35] = tested on: OVCAR-5 ovarian
# [36] = tested on: OVCAR-8 ovarian
# [37] = tested on: PC-3 prostate
# [38] = tested on: RPMI-8226 leukemia
# [39] = tested on: SF-268 CNS
# [40] = tested on: SF-295 CNS
# [41] = tested on: SF-539 CNS
# [42] = tested on: SK-MEL-2 melanoma
# [43] = tested on: SK-MEL-28 melanoma
# [44] = tested on: SK-MEL-5 melanoma
# [45] = tested on: SK-OV-3 ovarian
# [46] = tested on: SN12C renal
# [47] = tested on: SNB-19 CNS
# [48] = tested on: SNB-75 CNS
# [49] = tested on: SR leukemia
# [50] = tested on: SW-620 colon
# [51] = tested on: T-47D breast
# [52] = tested on: TK-10 renal
# [53] = tested on: U251 CNS
# [54] = tested on: UACC-257 melanoma
# [55] = tested on: UACC-62 melanoma
# [56] = tested on: UO-31 renal
# [57] = tested on: MDA-MB-435
# [58] = tested on: RXF 393 renal
structure (smiles),measurement,setting,value
O=C(N/N=C/c1cccs1)c1[nH]c2ccc(Br)cc2c1-c1ccccc1,GI50,[1],0.186 µM
same,TGI,[1],> 100 µM
same,GI50,[2],> 83.8 µM
same,TGI,[2],> 100 µM
same,GI50,[3],0.125 µM
same,TGI,[3],> 100 µM
same,GI50,[4],103 nM
same,TGI,[4],> 82.9 µM
same,GI50,[5],0.0976 µM
same,TGI,[5],0.474 µM
same,GI50,[6],0.153 µM
same,TGI,[6],> 100 µM
same,GI50,[7],61.9 nM
same,TGI,[7],> 100 µM
same,GI50,[8],0.152 µM
same,TGI,[8],0.32 µM
same,GI50,[9],0.063 µM
same,TGI,[9],> 100 µM
same,GI50,[10],2200 nM
same,TGI,[10],> 100 µM
same,GI50,[11],0.142 µM
same,TGI,[11],43.3 µM
same,GI50,[12],34.5 nM
same,TGI,[12],> 100 µM
same,GI50,[13],0.0418 µM
same,TGI,[13],> 57.2 µM
same,GI50,[14],86.8 nM
same,TGI,[14],358 nM
same,GI50,[15],0.15 µM
same,TGI,[15],> 93.4 µM
same,GI50,[16],1120 nM
same,TGI,[16],> 100000 nM
same,GI50,[17],0.0657 µM
same,TGI,[17],> 100 µM
same,GI50,[18],0.0368 µM
same,TGI,[18],1.57 µM
same,GI50,[19],81.8 nM
same,TGI,[19],> 100 µM
same,GI50,[20],36.7 nM
same,TGI,[20],> 100 µM
same,GI50,[21],152 nM
same,TGI,[21],> 100 µM
same,GI50,[22],34.7 nM
same,TGI,[22],22.8 µM
same,GI50,[23],0.0699 µM
same,TGI,[23],> 100 µM
same,GI50,[24],0.179 µM
same,TGI,[24],> 100 µM
same,GI50,[25],37.4 nM
same,TGI,[25],> 35.5 µM
same,GI50,[26],128 nM
same,TGI,[26],687 nM
same,GI50,[27],152 nM
same,TGI,[27],> 100 µM
same,GI50,[28],0.24 µM
same,TGI,[28],> 100 µM
same,GI50,[29],0.0883 µM
same,TGI,[29],> 100 µM
same,GI50,[30],0.0657 µM
same,TGI,[30],3.22 µM
same,GI50,[31],0.0242 µM
same,TGI,[31],0.0809 µM
same,GI50,[32],39.2 nM
same,GI50,[33],63.7 nM
same,TGI,[33],> 72.9 µM
same,GI50,[34],340 nM
same,TGI,[34],> 100 µM
same,GI50,[35],0.109 µM
same,TGI,[35],> 100 µM
same,GI50,[36],44.2 nM
same,GI50,[37],224 nM
same,TGI,[37],> 100 µM
same,GI50,[38],54.2 nM
same,TGI,[38],> 76.5 µM
same,GI50,[39],0.404 µM
same,TGI,[39],> 100 µM
same,GI50,[40],0.0392 µM
same,TGI,[40],39.6 µM
same,GI50,[41],0.0283 µM
same,TGI,[41],0.115 µM
same,GI50,[42],0.15 µM
same,TGI,[42],> 100 µM
same,GI50,[43],0.612 µM
same,TGI,[43],> 100 µM
same,GI50,[44],0.0638 µM
same,TGI,[44],0.23 µM
same,GI50,[45],0.345 µM
same,TGI,[45],> 100 µM
same,GI50,[46],0.0728 µM
same,TGI,[46],> 51.2 µM
same,GI50,[47],0.124 µM
same,TGI,[47],> 100 µM
same,GI50,[48],226 nM
same,TGI,[48],8.49 µM
same,GI50,[49],41.2 nM
same,TGI,[49],> 100 µM
same,GI50,[50],40.5 nM
same,TGI,[50],> 100 µM
same,GI50,[51],8.84 µM
same,TGI,[51],> 100 µM
same,GI50,[52],5.74 µM
same,TGI,[52],> 100 µM
same,GI50,[53],0.0746 µM
same,TGI,[53],> 100 µM
same,GI50,[54],297 nM
same,TGI,[54],> 100 µM
same,GI50,[55],0.0516 µM
same,TGI,[55],> 100 µM
same,GI50,[56],0.12 µM
same,TGI,[56],> 100 µM
COc1ccc(NC2=C(Cl)C(=O)C(C)=C(C)C2=O)cc1,GI50,[1],18.7 µM
same,TGI,[1],34 µM
same,GI50,[2],18 µM
same,TGI,[2],47.2 µM
same,GI50,[3],21.7 µM
same,TGI,[3],> 100 µM
same,GI50,[4],3940 nM
same,TGI,[4],13.6 µM
same,GI50,[5],13.3 µM
same,TGI,[5],26.6 µM
same,GI50,[6],10.4 µM
same,TGI,[6],22.2 µM
same,GI50,[8],19.2 µM
same,TGI,[8],38.8 µM
same,GI50,[9],25.2 µM
same,TGI,[9],69.8 µM
same,GI50,[10],1790 nM
same,TGI,[10],3.43 µM
same,GI50,[11],16.8 µM
same,TGI,[11],31.7 µM
same,GI50,[12],2000 nM
same,TGI,[12],4.37 µM
same,GI50,[13],13.7 µM
same,TGI,[13],27.9 µM
same,GI50,[14],2180 nM
same,TGI,[14],5540 nM
same,GI50,[15],12.2 µM
same,TGI,[15],25.4 µM
same,GI50,[16],1400 nM
same,TGI,[16],2840 nM
same,GI50,[17],17.4 µM
same,TGI,[17],72.4 µM
same,GI50,[18],23.5 µM
same,TGI,[18],54.1 µM
same,GI50,[19],1780 nM
same,TGI,[19],3.35 µM
same,GI50,[20],2580 nM
same,TGI,[20],9.59 µM
same,GI50,[21],3750 nM
same,TGI,[21],44.3 µM
same,GI50,[22],1790 nM
same,TGI,[22],3.59 µM
same,GI50,[23],12 µM
same,TGI,[23],26.6 µM
same,GI50,[24],14 µM
same,TGI,[24],28.2 µM
same,GI50,[25],2350 nM
same,TGI,[25],6.05 µM
same,GI50,[26],1990 nM
same,TGI,[26],4490 nM
same,GI50,[57],2740 nM
same,TGI,[57],7.13 µM
same,GI50,[28],12.3 µM
same,TGI,[28],27.6 µM
same,GI50,[29],14.8 µM
same,TGI,[29],55 µM
same,GI50,[30],25.5 µM
same,TGI,[30],> 100 µM
same,GI50,[31],13.3 µM
same,TGI,[31],29.5 µM
same,GI50,[32],2890 nM
same,TGI,[32],9.87 µM
same,GI50,[33],2120 nM
same,TGI,[33],4.53 µM
same,GI50,[34],1710 nM
same,TGI,[34],3.1 µM
same,GI50,[35],16.8 µM
same,TGI,[35],35.7 µM
same,GI50,[36],1840 nM
same,TGI,[36],3.84 µM
same,GI50,[37],4510 nM
same,TGI,[37],20.6 µM
same,GI50,[38],2230 nM
same,TGI,[38],5.69 µM
same,GI50,[58],9.13 µM
same,TGI,[58],21.4 µM
same,GI50,[39],11.4 µM
same,TGI,[39],52.2 µM
same,GI50,[40],10.3 µM
same,TGI,[40],23.7 µM
same,GI50,[41],15.5 µM
same,TGI,[41],29.4 µM
same,GI50,[42],11 µM
same,TGI,[42],24.1 µM
same,GI50,[43],14.9 µM
same,TGI,[43],28.8 µM
same,GI50,[44],6.45 µM
same,TGI,[44],19.1 µM
same,GI50,[45],10.8 µM
same,TGI,[45],22.7 µM
same,GI50,[46],12.7 µM
same,TGI,[46],26.3 µM
same,GI50,[47],10.3 µM
same,TGI,[47],22.1 µM
same,GI50,[48],4490 nM
same,TGI,[48],19.1 µM
same,GI50,[49],2370 nM
same,TGI,[49],8.06 µM
same,GI50,[50],3920 nM
same,TGI,[50],18.9 µM
same,GI50,[52],28.6 µM
same,TGI,[52],52.1 µM
same,GI50,[53],7.5 µM
same,TGI,[53],21 µM
same,GI50,[54],1860 nM
same,TGI,[54],3.96 µM
same,GI50,[55],10.6 µM
same,TGI,[55],22.7 µM
same,GI50,[56],11.1 µM
same,TGI,[56],23.1 µM
